Assay results taken from patent US20230002397A1, “SMALL MOLECULE DEGRADERS OF HELIOS AND METODS OF USE” (DANA-FARBER CANCER INSTITUTE, INC., priority 2019, published 2023).
Where two headings read alike, the source gives them in different places.

Target: T1, IKZF2 (Homo sapiens, UniProt Q96SW2+Q9UKS7)
T1 construct: CRISPR/Cas9—mediated insertion of the HiBiT peptide tag (Promega™) to the N-terminus of the IKZF2 gene locus; endogenous in cells; host or cells: MOLT4 cells, with CRISPR/Cas9 knock-in of HiBiT at the endogenous IKZF2 locus
Assay: HiBit-IKZF2 assay (HiBiT-Helios degradation in MOLT4 cells)
Type: cell-based
Settings: for Dmax: 10 μM to 0.00026 μM; for DC50: concentration at which 50% of HiBiT-Helios degradation was achieved
Procedure: The HiBiT protein tagging system was applied to MOLT4 cells via a CRISPR/Cas9—mediated insertion of the HiBiT peptide tag (Promega™) to the N-terminus of the IKZF2 gene locus (Neon™ Transfection System). The resulting HiBiT-Helios stable cell line was treated with the following compounds in triplicates following a 13-point concentration scheme ranging from 10 μM to 0.00026 μM. At the indicated timepoints, the Nano-Glo® HiBiT Lytic Detection System (Promega™) was utilized for detecting bioluminescence of the HiBiT tag in treated cells: abundance of the tag is proportionate to the level of luminescence. Following normalization to DMSO, dose-response curves were plotted (GraphPad Prism) to determine the concentration points at which 50% of HiBiT-Helios degradation was achieved by each compound. The extent of degradation (range of luminescence) from the highest to lowest concentration points was calculated to determine the Dmax.

[1] = MOLT-4, extent of degradation from highest to lowest concentration, read-out: Dmax
[2] = extent of degradation from highest to lowest concentration

T1 sequence (Q9UKS7 whole entry): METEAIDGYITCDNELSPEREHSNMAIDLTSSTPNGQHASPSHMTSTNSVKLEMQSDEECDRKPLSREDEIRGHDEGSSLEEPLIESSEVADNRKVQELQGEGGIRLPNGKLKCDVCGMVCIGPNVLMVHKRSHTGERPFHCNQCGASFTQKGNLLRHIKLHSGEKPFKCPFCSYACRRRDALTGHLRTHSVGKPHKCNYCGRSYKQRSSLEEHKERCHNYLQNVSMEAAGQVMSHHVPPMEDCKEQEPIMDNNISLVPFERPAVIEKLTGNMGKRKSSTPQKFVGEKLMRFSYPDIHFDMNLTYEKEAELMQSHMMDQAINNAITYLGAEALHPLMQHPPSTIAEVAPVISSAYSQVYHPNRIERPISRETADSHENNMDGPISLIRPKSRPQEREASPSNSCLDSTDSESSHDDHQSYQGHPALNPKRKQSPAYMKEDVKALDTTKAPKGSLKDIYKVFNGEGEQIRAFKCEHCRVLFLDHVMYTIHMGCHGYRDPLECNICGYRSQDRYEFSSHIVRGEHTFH
T1 sequence (Q96SW2 whole entry): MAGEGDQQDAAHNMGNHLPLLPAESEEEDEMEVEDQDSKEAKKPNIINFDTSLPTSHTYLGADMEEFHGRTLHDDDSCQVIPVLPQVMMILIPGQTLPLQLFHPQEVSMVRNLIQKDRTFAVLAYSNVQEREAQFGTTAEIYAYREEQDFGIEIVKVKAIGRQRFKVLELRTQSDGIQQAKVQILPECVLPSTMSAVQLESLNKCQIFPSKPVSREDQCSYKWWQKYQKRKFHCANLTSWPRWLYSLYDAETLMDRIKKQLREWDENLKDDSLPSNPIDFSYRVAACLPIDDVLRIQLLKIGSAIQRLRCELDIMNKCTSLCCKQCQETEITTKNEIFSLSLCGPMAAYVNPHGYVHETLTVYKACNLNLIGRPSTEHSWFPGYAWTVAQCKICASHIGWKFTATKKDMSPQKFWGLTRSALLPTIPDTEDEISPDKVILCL
T1 sequence (Q16531 whole entry partner): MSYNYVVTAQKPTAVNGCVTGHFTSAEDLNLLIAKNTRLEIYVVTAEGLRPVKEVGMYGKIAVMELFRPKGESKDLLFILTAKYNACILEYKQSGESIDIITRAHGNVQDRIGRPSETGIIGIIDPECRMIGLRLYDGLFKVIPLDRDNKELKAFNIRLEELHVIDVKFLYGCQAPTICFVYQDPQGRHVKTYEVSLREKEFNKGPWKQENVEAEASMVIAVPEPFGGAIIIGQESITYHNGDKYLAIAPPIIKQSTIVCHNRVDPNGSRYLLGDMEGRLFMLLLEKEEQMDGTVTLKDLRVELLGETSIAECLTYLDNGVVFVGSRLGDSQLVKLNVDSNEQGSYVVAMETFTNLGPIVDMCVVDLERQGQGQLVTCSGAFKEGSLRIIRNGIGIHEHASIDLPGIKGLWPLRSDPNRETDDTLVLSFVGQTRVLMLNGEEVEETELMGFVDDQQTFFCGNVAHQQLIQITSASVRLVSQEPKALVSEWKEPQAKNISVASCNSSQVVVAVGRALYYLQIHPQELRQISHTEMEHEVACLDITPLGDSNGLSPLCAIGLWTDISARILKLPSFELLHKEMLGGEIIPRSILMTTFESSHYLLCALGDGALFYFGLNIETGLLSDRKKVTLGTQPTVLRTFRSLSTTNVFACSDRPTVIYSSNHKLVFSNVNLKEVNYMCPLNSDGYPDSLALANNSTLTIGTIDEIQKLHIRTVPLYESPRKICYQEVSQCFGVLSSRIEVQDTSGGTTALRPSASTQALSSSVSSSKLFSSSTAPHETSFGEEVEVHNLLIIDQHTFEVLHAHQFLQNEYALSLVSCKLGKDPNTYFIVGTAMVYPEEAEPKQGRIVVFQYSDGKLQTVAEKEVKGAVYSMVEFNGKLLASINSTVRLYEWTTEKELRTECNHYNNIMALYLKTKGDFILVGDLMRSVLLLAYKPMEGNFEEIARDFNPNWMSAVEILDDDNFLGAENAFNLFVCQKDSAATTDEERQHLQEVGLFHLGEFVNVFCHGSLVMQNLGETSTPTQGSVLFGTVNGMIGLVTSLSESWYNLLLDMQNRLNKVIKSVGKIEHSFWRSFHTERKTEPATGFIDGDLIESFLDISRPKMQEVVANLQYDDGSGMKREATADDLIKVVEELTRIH

Dmax [1]	DC50	Dmax [2]	SMILES
50 to 70%	30 to 150 nM	–	O=C1CCC(N2Cc3cc(C4CCN(Cc5ccnc(Oc6ccccc6)c5)CC4)ccc3C2=O)C(=O)N1 (stereo not drawn) [Compound 43, 3-(1-oxo-5-(1-((2-phenoxypyridin-4-yl)methyl)piperidin-4-yl)isoindolin-2-yl)piperidine-2,6-dione]
50 to 70%	< 10 nM	–	Cc1ccnc(Nc2cccc(CN3CCC(c4ccc5c(c4)CN(C4CCC(=O)NC4=O)C5=O)CC3)c2F)n1 (stereo not drawn) [Compound 231]
30 to 50%	30 to 150 nM	–	CN(c1ccccn1)S(=O)(=O)c1ccc(CN2CCC(c3ccc4c(c3)CN(C3CCC(=O)NC3=O)C4=O)CC2)cc1 (stereo not drawn) [Compound 99]
50 to 70%	10 to 30 nM	–	O=C1CCC(N2Cc3cc(C4CCN(Cc5ccnc(Nc6ccccc6)c5F)CC4)ccc3C2=O)C(=O)N1 (stereo not drawn) [Compound 126]
> 70%	< 10 nM	–	O=C1CCC(N2Cc3cc(C4CCN(Cc5ccc6c(c5)C(=O)N(c5ccns5)C6)CC4)ccc3C2=O)C(=O)N1 (stereo not drawn) [Compound 224]
50 to 70%	< 10 nM	–	O=C1CCC(N2Cc3cc(C4CCN(Cc5cccc(Nc6ccccn6)c5)CC4)ccc3C2=O)C(=O)N1 (stereo not drawn) [Compound 42, 3-(1-oxo-5-(1-(3-(pyridin-2-ylamino)benzyl)piperidin-4-yl)isoindolin-2-yl)piperidine-2,6-dione]
50 to 70%	10 to 30 nM	–	O=C1CCC(N2Cc3cc(C4CCN(Cc5nccc(Nc6ccccn6)n5)CC4)ccc3C2=O)C(=O)N1 (stereo not drawn) [Compound 102]
50 to 70%	< 10 nM	–	N#Cc1ccc(N2Cc3ccc(CN4CCC(c5ccc6c(c5)CN(C5CCC(=O)NC5=O)C6=O)CC4)cc3C2=O)c(F)c1 (stereo not drawn) [Compound 177]
30 to 50%	30 to 150 nM	–	O=C1CCC(N2Cc3cc(C4(O)CCN(Cc5ccccc5)C4)ccc3C2=O)C(=O)N1 (stereo not drawn) [Compound 210]
50 to 70%	< 10 nM	–	O=C1CCC(N2Cc3cc(C4CCN(Cc5ccc6c(c5)C(=O)N(c5cnsc5)C6)CC4)ccc3C2=O)C(=O)N1 (stereo not drawn) [Compound 222]
30 to 50%	10 to 30 nM	–	O=C1CCC(N2Cc3cc(C4CCN(Cc5cccc(N6CCCCS6(=O)=O)c5)CC4)ccc3C2=O)C(=O)N1 (stereo not drawn) [Compound 97]
50 to 70%	30 to 150 nM	–	O=C1CCC(N2Cc3cc(C4CCN(Cc5cccc(S(=O)(=O)N6CC7(COC7)C6)c5)CC4)ccc3C2=O)C(=O)N1 (stereo not drawn) [Compound 62]
50 to 70%	< 10 nM	–	Cc1ccnc(Nc2cccc(CN3CCC(c4ccc5c(c4)CN(C4CCC(=O)NC4=O)C5=O)CC3)c2)n1 (stereo not drawn) [Compound 229]
30 to 50%	10 to 30 nM	–	O=C1CCC(N2Cc3cc(C4CCN(Cc5ccc6c(n5)C(=O)N(c5ccccc5)C6)CC4)ccc3C2=O)C(=O)N1 (stereo not drawn) [Compound 172]
50 to 70%	< 10 nM	–	O=C1CCC(N2Cc3cc(C4CCN(Cc5cccc(C(=O)Nc6ccccn6)c5)CC4)ccc3C2=O)C(=O)N1 (stereo not drawn) [Compound 156]
50 to 70%	< 10 nM	–	O=C1CCC(N2Cc3cc(C4CCN(Cc5cccc(Nc6ncccn6)c5F)CC4)ccc3C2=O)C(=O)N1 (stereo not drawn) [Compound 188]
50 to 70%	10 to 30 nM	–	CN(C(=O)c1ccccc1)c1ccc(CN2CCC(c3ccc4c(c3)CN(C3CCC(=O)NC3=O)C4=O)CC2)cc1 (stereo not drawn) [Compound 170]
50 to 70%	30 to 150 nM	–	O=C1CCC(N2Cc3cc(C4CCN(Cc5ccc(Nc6ccccn6)cc5)CC4)ccc3C2=O)C(=O)N1 (stereo not drawn) [Compound 145]

Dmax [1]	DC50	Dmax [2]	SMILES
50 to 70%	30 to 150 nM	–	O=C1CCC(N2Cc3cc(C4CCN(Cc5cccc(Nc6ncc(F)cn6)c5F)CC4)ccc3C2=O)C(=O)N1 (stereo not drawn) [Compound 230]
30 to 50%	30 to 150 nM	–	O=C1CCC(N2Cc3cc(C4CCN(Cc5cc(Nc6ccccc6)ncn5)CC4)ccc3C2=O)C(=O)N1 (stereo not drawn) [Compound 116]
50 to 70%	10 to 30 nM	–	CP(C)(=O)c1cccc(Nc2cccc(CN3CCC(c4ccc5c(c4)CN(C4CCC(=O)NC4=O)C5=O)CC3)c2)c1 (stereo not drawn) [Compound 135, 3-(5-(1-(3-((3-(dimethylphosphoryl)phenyl)amino)benzyl)piperidin-4-yl)-1-oxoisoindolin-2-yl)piperidine-2,6-dione]
50 to 70%	< 10 nM	–	O=C1CCC(N2Cc3cc(C4CCN(Cc5cccc(Nc6ncccn6)c5)CC4)ccc3C2=O)C(=O)N1 (stereo not drawn) [Compound 149]
50 to 70%	10 to 30 nM	–	O=C1CCC(N2Cc3cc(C4CCN(Cc5ccc6c(c5)C(=O)N(c5ccsn5)C6)CC4)ccc3C2=O)C(=O)N1 (stereo not drawn) [Compound 223]
50 to 70%	< 10 nM	–	N#Cc1ccccc1N1Cc2ccc(CN3CCC(c4ccc5c(c4)CN(C4CCC(=O)NC4=O)C5=O)CC3)cc2C1=O (stereo not drawn) [Compound 179]
30 to 50%	10 to 30 nM	–	O=C1CCC(N2Cc3cc(C4CCN(Cc5ccnc(Nc6ccccc6)n5)CC4)ccc3C2=O)C(=O)N1 (stereo not drawn) [Compound 122]
50 to 70%	< 10 nM	–	CP(C)(=O)c1ccccc1Nc1cccc(CN2CCC(c3ccc4c(c3)CN(C3CCC(=O)NC3=O)C4=O)CC2)c1 (stereo not drawn) [Compound 134]
50 to 70%	10 to 30 nM	–	CN(c1cccc(CN2CCC(c3ccc4c(c3)CN(C3CCC(=O)NC3=O)C4=O)CC2)c1)c1ncccn1 (stereo not drawn) [Compound 232]
50 to 70%	10 to 30 nM	–	Cc1ccccc1N1Cc2ccc(CN3CCC(c4ccc5c(c4)CN(C4CCC(=O)NC4=O)C5=O)CC3)cc2C1=O (stereo not drawn) [Compound 214]
50 to 70%	30 to 150 nM	–	O=C1CCC(N2Cc3cc(C4CCN(Cc5cccc(S(=O)(=O)N6CCOc7ccccc76)c5)CC4)ccc3C2=O)C(=O)N1 (stereo not drawn) [Compound 84]
–	10 to 30 nM	++ (“++” is from >50% to <70%)	O=C1CCC(N2Cc3cc(C4CCN(Cc5ccc6c(c5F)C(=O)N(c5ccccc5)C6)CC4)ccc3C2=O)C(=O)N1 (stereo not drawn) [Compound 213]
50 to 70%	30 to 150 nM	–	O=C1CCC(N2Cc3cc(C4CCN(Cc5ccnc(C(=O)Nc6ccccc6)c5)CC4)ccc3C2=O)C(=O)N1 (stereo not drawn) [Compound 131]
50 to 70%	10 to 30 nM	–	O=C1CCC(N2Cc3cc(C4CCN(Cc5ccccc5Nc5ccccn5)CC4)ccc3C2=O)C(=O)N1 (stereo not drawn) [Compound 120]
50 to 70%	10 to 30 nM	–	O=C1CCC(N2Cc3cc(C4CCN(Cc5cccc(S(=O)(=O)N6CCC7(CC7)C6)c5)CC4)ccc3C2=O)C(=O)N1 (stereo not drawn) [Compound 60]
–	< 10 nM	+++ (“+++” is >70%)	O=C1CCC(N2Cc3cc(C4(O)CCN(Cc5ccc6ncn(-c7ccccc7)c(=O)c6c5)CC4)ccc3C2=O)C(=O)N1 (stereo not drawn) [Compound 234]
30 to 50%	10 to 30 nM	–	O=C1CCC(N2Cc3cc(C4CCN(Cc5ccc6c(c5)C(=O)N(c5ncccn5)C6)CC4)ccc3C2=O)C(=O)N1 (stereo not drawn) [Compound 178]

SMILES	Dmax [1]	DC50	Dmax [2]
O=C1CCC(N2Cc3cc(C4(O)CCN(Cc5cccc(OCc6ccccc6)c5)CC4)ccc3C2=O)C(=O)N1 (stereo not drawn) [Compound 277]	> 70%	< 10 nM	–
O=C1CCC(N2Cc3cc(C4(O)CCN(Cc5cccc6cccnc56)CC4)ccc3C2=O)C(=O)N1 (stereo not drawn) [Compound 280]	> 70%	10 to 30 nM	–
O=C1CCC(N2Cc3cc(C4(O)CCN(Cc5cc(F)cc(F)c5)CC4)ccc3C2=O)C(=O)N1 (stereo not drawn) [Compound 205]	> 70%	< 10 nM	–
O=C1CCC(N2Cc3cc(C4(O)CCN(Cc5cccc6ccccc56)CC4)ccc3C2=O)C(=O)N1 (stereo not drawn) [Compound 204]	> 70%	< 10 nM	–
CC(c1ccccc1)N1CCC(O)(c2ccc3c(c2)CN(C2CCC(=O)NC2=O)C3=O)CC1 (stereo not drawn) [Compound 269]	> 70%	< 10 nM	–
O=C1CCC(N2Cc3cc(C4(O)CCN(Cc5nc6ccccc6s5)CC4)ccc3C2=O)C(=O)N1 (stereo not drawn) [Compound 260]	50 to 70%	10 to 30 nM	–
O=C1CCC(N2Cc3cc(C4(O)CCN(Cc5ccc(F)c(Nc6ccccc6)n5)CC4)ccc3C2=O)C(=O)N1 (stereo not drawn) [Compound 197]	50 to 70%	< 10 nM	–
N#Cc1cccc(CN2CCC(O)(c3ccc4c(c3)CN(C3CCC(=O)NC3=O)C4=O)CC2)c1 (stereo not drawn) [Compound 238]	> 70%	< 10 nM	–
O=C1CCC(N2Cc3cc(C4(O)CCN(Cc5ccc(C6CC6)cc5)CC4)ccc3C2=O)C(=O)N1 (stereo not drawn) [Compound 270]	> 70%	< 10 nM	–
O=C1CCC(N2Cc3cc(C4(O)CCN(Cc5cnc(-c6ccccc6)s5)CC4)ccc3C2=O)C(=O)N1 (stereo not drawn) [Compound 240]	> 70%	< 10 nM	–
O=C1CCC(N2Cc3cc(C4(O)CCN(Cc5ccc6c(c5)OCCCO6)CC4)ccc3C2=O)C(=O)N1 (stereo not drawn) [Compound 272]	> 70%	< 10 nM	–
O=C1CCC(N2Cc3cc(C4(O)CCN(Cc5ccc6c(c5)CCO6)CC4)ccc3C2=O)C(=O)N1 (stereo not drawn) [Compound 246]	> 70%	< 10 nM	–
COc1ccc(CN2CCC(O)(c3ccc4c(c3)CN(C3CCC(=O)NC3=O)C4=O)CC2)cc1 (stereo not drawn) [Compound 262]	50 to 70%	10 to 30 nM	–
O=C1CCC(N2Cc3cc(C4(O)CCN(Cc5cccc(F)c5Cl)CC4)ccc3C2=O)C(=O)N1 (stereo not drawn) [Compound 254]	> 70%	< 10 nM	–
N#Cc1ccc(CN2CCC(O)(c3ccc4c(c3)CN(C3CCC(=O)NC3=O)C4=O)CC2)cc1 (stereo not drawn) [Compound 239]	> 70%	< 10 nM	–
O=C1CCC(N2Cc3cc(C4(O)CCN(Cc5ccnc(Nc6ccccc6)n5)CC4)ccc3C2=O)C(=O)N1 (stereo not drawn) [Compound 196]	> 70%	< 10 nM	–
